One assay deals with dopamine receptors. The following applies: prior art, in words; cited from earlier work.
A further assay concerns σ receptors. The following applies: prior art, in words; cited from earlier work.
In the next assay the target is PCP receptor. As to the kind of experiment: PCP receptor binding ([3H]TCP). The note with it: [3H]TCP 5 nM, rat cortex tissue, pH 7.8, 25° C., 30 minutes. Here is the method:
(§1) After the decapitation of rats the objective tissues were rapidly removed and each was weighed. Each tissue was homogenized with twenty-fold amount of ice-cold 50 mM […] buffer (pH7.8) homogenized, and centrifuged at 40,000×g for 10 minutes. The supernatant was removed and pellets were then resuspended in the buffer and recentrifuged. The procedure is repeated 3 times. Then these obtained samples were freeze-dried in liquid nitrogen and preserved at -80° C. On the test day the sample was thawed at room temperature and centrifuged at 40,000×g for 10 minutes, the pellets were then suspended in an incubation buffer and used as the receptor preparation. The preparation was added to the mixture containing the labelled ligand and the test drug, and filtered through Whatman GF/C filters and washed to terminate the reaction. Radioactivity on the filters was determined by a liquid scintillation counter and Ki value was calculated.
PCP receptor binding was initiated by the addition of the receptor preparation (cortex tissue, 0.2 mg protein/ml) to a mixture containing 5 nM of [^3 H]TCP and the test compound dissolved in 5 mM Tris-HCl buffer (pH 7.8). Incubation was carried out at 25° C. for 30 minutes. Specific PCP receptor binding was defined as the difference in amount of [^3 H]TCP bound to the tissue in the presence or the absence of 10 μM PCP.

In a further assay the target is σ receptor. The experiment in a line: σ receptor binding ([3H]3PPP). The note with it: [3H]3PPP 5 nM, rat cortex tissue, pH 7.8, 25° C., 90 minutes. Here is the method: as §1
Sigma receptor binding was initiated by the addition of the receptor preparation (cortex tissue, 0.7 mg protein/ml) to a mixture containing 5 nM of [^3 H]3PPP [3-hydroxyphenyl-N-(1-propyl)piperidine] and the test compound dissolved in 50 mM Tris-HCl buffer (pH 7.8). Incubation was carried out at 25° C. for 90 minutes. Specific sigma receptor binding was defined as the difference in amount of [^3 H]3PPP bound to the tissue in the presence or the absence of 10 μM haloperidol.

The next assay concerns the target T1, DA2 receptor (Rattus norvegicus, UniProt P61169).
T1 construct: receptor preparation (striatal tissue, 0.3 mg protein/ml); from tissue; host or cells: rat striatal membranes
As to the kind of experiment: DA2 receptor binding ([3H]spiroperidol). The following applies: [3H]spiroperidol 0.2 nM, rat striatal tissue, pH 7.4, 37° C., 10 minutes. Here is the method: as §1
DA2 receptor binding was initiated by the addition of the receptor preparation (striatal tissue, 0.3 mg protein/ml) to a mixture containing 0.2 nM of [^3 H]spiroperidol and the test compound dissolved in 50 mM Tris-HCl buffer containing 100 mM-NaCl and 5 mM-KCl (pH 7.4). Incubation was carried out at 37° C. for 10 minutes. Specific DA2 receptor binding was defined as the difference in amount of [^3 H]spiroperidol bound to the tissue in the presence or the absence of 10 μM haloperidol.

A further assay has as its target T2, 5HT2 receptor (Rattus norvegicus, UniProt P14842).
T2 construct: receptor preparation (cortex tissue, 0.5 mg protein/ml); from tissue; host or cells: rat cortex membranes
As to the kind of experiment: 5HT2 receptor binding ([3H]spiroperidol). The note with it: [3H]spiroperidol 1 nM, rat cortex tissue, pH 7.4, 37° C., 15 minutes. Here is the method:
as §1
5HT2 receptor binding was initiated by the addition of the receptor preparation (cortex tissue, 0.5 mg protein/ml) to a mixture containing 1 nM of [^3 H]spiroperidol and the test compound dissolved in 50 mM Tris-HCl buffer (pH 7.4). Incubation was carried out at 37° C. for 15 minutes. Specific 5HT2 receptor binding was defined as the difference in amount of [^3 H]spiroperidol bound to the tissue in the presence or the absence of 1 mM serotonin.

Results on 18 compounds are retold here after patent publication US5362873A, “Tetrahydropyridine derivatives” (Shionogi & Co., Ltd., priority 1990, dated 1994).

The structures appear in SMILES notation.

T1 sequence (P61169 whole entry): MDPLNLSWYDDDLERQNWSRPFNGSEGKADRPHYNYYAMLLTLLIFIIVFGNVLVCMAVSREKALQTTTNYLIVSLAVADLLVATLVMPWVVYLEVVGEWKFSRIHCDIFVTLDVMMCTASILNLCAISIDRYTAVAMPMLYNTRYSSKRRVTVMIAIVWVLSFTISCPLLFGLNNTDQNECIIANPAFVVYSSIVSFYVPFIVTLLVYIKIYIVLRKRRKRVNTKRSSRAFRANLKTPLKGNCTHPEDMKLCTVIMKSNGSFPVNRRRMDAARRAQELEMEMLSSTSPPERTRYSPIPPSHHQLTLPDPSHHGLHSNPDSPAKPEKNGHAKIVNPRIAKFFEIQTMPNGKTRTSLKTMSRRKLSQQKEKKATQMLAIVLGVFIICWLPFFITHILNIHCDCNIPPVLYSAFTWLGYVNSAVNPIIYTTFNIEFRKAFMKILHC
T2 sequence (P14842 whole entry): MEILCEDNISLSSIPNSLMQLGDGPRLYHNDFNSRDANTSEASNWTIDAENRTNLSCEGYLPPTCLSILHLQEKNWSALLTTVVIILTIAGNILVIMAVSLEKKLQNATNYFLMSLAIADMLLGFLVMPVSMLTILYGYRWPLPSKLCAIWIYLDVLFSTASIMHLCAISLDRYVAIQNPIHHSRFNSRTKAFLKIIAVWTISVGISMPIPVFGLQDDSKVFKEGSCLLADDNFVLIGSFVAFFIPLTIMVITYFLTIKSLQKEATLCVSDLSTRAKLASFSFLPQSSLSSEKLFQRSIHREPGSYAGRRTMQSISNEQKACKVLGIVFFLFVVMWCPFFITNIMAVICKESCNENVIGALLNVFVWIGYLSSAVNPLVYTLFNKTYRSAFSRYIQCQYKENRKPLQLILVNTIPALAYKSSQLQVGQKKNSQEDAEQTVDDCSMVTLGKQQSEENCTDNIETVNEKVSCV

With `OC(CCCN1CCN(c2ncc(F)cn2)CC1)c1ccc(F)cc1` (centres unmarked) [BMY 148021], in the assay on dopamine receptors, the “affinity to dopamine receptors” value was “low affinity”. In addition, the “affinity to σ receptors” value with σ receptors is on record as “high affinity”.

As for `O=C1CCCN1C(=O)NCCCN1CC=C(c2ccc(C(F)(F)F)cc2)CC1` [I a-2], the Ki on PCP receptor was determined as 31000 nM; at σ receptor it was 4.1 nM; at DA2 receptor it was 4700 nM; on 5HT2 receptor it was 550 nM.

With `CCCc1ccc(C2=CCN(CCCNC(=O)N3CCCC3=O)CC2)cc1` [I a-3], the inhibition constant Ki was found to be 15000 nM on PCP receptor, 9.5 nM on σ receptor, 4000 nM at DA2 receptor and 1700 nM at 5HT2 receptor.

As to `CC(C)(C)c1ccc(C2=CCN(CCCNC(=O)N3CCCC3=O)CC2)cc1` [I a-6], the Ki was 49000 nM at PCP receptor, 2.7 nM on σ receptor, 2200 nM on DA2 receptor and 2500 nM on 5HT2 receptor.

With `CC(C)(C)c1ccc(C2=CCN(CCCC(=O)N3CCCC3=O)CC2)cc1` [I a-8], the Ki at PCP receptor is over 62000 nM; on σ receptor, 1.3 nM; at DA2 receptor it was 1200 nM; on 5HT2 receptor it was 2900 nM.

For the compound `O=C(CCCN1CC=C(c2ccc(C(F)(F)F)cc2)CC1)N1CCCC1=O` [I a-9], the Ki turned out to be 33000 nM at PCP receptor, 6.1 nM at σ receptor, 1600 nM at DA2 receptor and 1200 nM on 5HT2 receptor.

In the case of `CC(C)(C)c1ccc(C2=CCN(CCCNC(=O)N3CCCC3)CC2)cc1` [I a-11], the Ki on PCP receptor came out at 23000 nM; at σ receptor, 2.6 nM; at DA2 receptor it was 4500 nM; on 5HT2 receptor, 4400 nM.

Take `O=C1CCCN1C(=O)NCCCCCN1CC=C(c2ccc(C(F)(F)F)cc2)CC1` [I a-13]: the inhibition constant (Ki) at PCP receptor amounted to 26000 nM; on σ receptor, 2.2 nM; on DA2 receptor, 320 nM; at 5HT2 receptor it was 770 nM.

For the compound `Cc1ccc(C2=CCN(CCCN(CC(C)C)CC(C)C)CC2)cc1` [I a-24], the Ki at PCP receptor worked out at 32000 nM; on σ receptor it was 5.8 nM; at DA2 receptor it was 1100 nM; at 5HT2 receptor it was 380 nM.

`CNCCCN1CC=C(c2ccc(C(C)(C)C)cc2)CC1` [I a-30, 1-[(3-methylamino)propyl]-4-(4-tert-butylphenyl)-1,2,5,6-tetrahydropyridine]: the Ki was over 63000 nM on PCP receptor, 1.3 nM on σ receptor, 2000 nM on DA2 receptor and 3700 nM on 5HT2 receptor.

In the case of `CC(C)(C)c1ccc(C2=CCN(CCCN3CCOCC3)CC2)cc1` [I a-35, 4-[3-{4-(4-tert-butylphenyl)-1,2,5,6-tetrahydropyridin-1-yl}propyl]morpholine], the Ki at PCP receptor worked out at 18000 nM; on σ receptor it was 1.8 nM; on DA2 receptor, 4600 nM; on 5HT2 receptor, 3200 nM.

As to `CC1CCN(CCCN2CC=C(c3ccc(C(C)(C)C)cc3)CC2)CC1` [I a-56], the inhibition constant Ki at PCP receptor stood at 44000 nM; on σ receptor, 6.5 nM; at DA2 receptor it was 4500 nM; on 5HT2 receptor it was 8900 nM.

In the case of `Cc1ccc(C2=CCN(CCCN3CCC(C)CC3)CC2)cc1` [I a-57], the inhibition constant Ki is 44000 nM on PCP receptor, 6.3 nM on σ receptor, 2400 nM on DA2 receptor and 140 nM on 5HT2 receptor.

With `CC(C)(C)c1ccc(C2=CCN(CCCN3CCSCC3)CC2)cc1` [I a-94], the Ki at PCP receptor stood at 27000 nM; on σ receptor, 1.3 nM; on DA2 receptor, 1400 nM; at 5HT2 receptor it was 1900 nM.

`Cc1ccc(C2=CCN(CCCN3CCOCC3)CC2)cc1` [I a-101]: the Ki on PCP receptor was over 63000 nM; at σ receptor, 0.31 nM; on DA2 receptor, 1800 nM; at 5HT2 receptor, 7700 nM.

With `Clc1ccc(C2=CCN(CCCN3CCOCC3)CC2)cc1` [I a-102], the Ki is over 71000 nM on PCP receptor, 0.71 nM at σ receptor, 3200 nM at DA2 receptor and 5700 nM at 5HT2 receptor.

Regarding `FC(F)(F)c1ccc(C2=CCN(CCCOc3ccc(Cl)c(Cl)c3)CC2)cc1` [I a-111, 1-{3-(3,4-Dichlorophenoxy)propyl}-4-(4-trifluoromethylphenyl)-1,2,5,6-tetrahydropyridine], the Ki is over 63000 nM at PCP receptor, 2.9 nM on σ receptor, 630 nM at DA2 receptor and 390 nM at 5HT2 receptor.

Turning to `C[C@@H]1CN(CCCn2c3ccccc3c3ccccc32)C[C@H](C)N1` [rimcazole], in the assay with dopamine receptors, the “affinity to dopamine receptors” value was “low affinity”. Moreover, in the assay with σ receptors, the “affinity to σ receptors” value was “high affinity”.
